Assay results as given in patent publication US6020363A, “Isocoumarin derivatives and use thereof in drugs” (Mercian Corporation, priority 1998, dated 2000).

Key:
[1] = system: collagen-induced arthritis; assay: Inhibitory Effect on Collagen-Induced Arthritis (No. 1), sole thickness; assay type: in vivo, DBA/1J mice; details: intraperitoneal, mean ± SD, *p < 0.05 vs control (8.02 ± 0.82)
Procedure: The preventive effect on the onset of collagen-induced arthritis was tested by using DBA/1J mice in groups of 5-8. Specifically, type II collagen was mixed with an equal volume of Freund's complete adjuvant and emulsified to prepare a 1 mg/ml emulsion. Mice were sensitized by administering 0.1 ml of this emulsion intracutaneously to the root of the tail. After 21 days, the mice were additionally immunized by emulsifying type II collagen in the same manner as before and administering 0.1 ml of the emulsion intraperitoneally so as to induce arthritis.
Starting from the day of the first sensitization with type II collagen, Compound 1 was orally administered, once a day, for 43 days in a dose of 10 or 30 mg/kg body weight. Similarly, each of Compounds 2 and 3 was intraperitoneally administered, once a day, for 43 days in a dose of 1 or 10 mg/kg body weight. Their inhibitory effect on collagen-induced arthritis was evaluated by measuring the sole thicknesses of the hind legs periodically with digital vernier calipers.

[2] = set-up: species or system DBA/1J mice; details: mouse, in vivo, po, 30 mg/kg
Procedure: Among the compounds in accordance with the present invention, each of Compounds 1, 2 and 3 was orally or intraperitoneally administered to eight DBA/1J mice in a dose of 100 mg/kg body weight. […] This seems to indicate that the compounds used in the present invention have no or very little, if any, acute toxicity. Moreover, Compound 1, in a dose of 100 mg/kg body weight, or Compound 3, in a dose of 30 mg/kg body weight, was orally administered to eight mice of the aforesaid strain for 40 days. […] Thus, the compounds of the present invention have little subacute toxicity. Since other compounds in accordance with the present invention are estimated to have similar properties, the compounds of the present invention can be used very safely.

[3] = system: neogenesis of tumor vessels induced by the transplanted mouse tumor S180; assay: Inhibitory Effect on Vascularization Using the Mouse Back Subcutaneous Transplantation Method; assay type: in vivo, male ICR mouse; details: for Vascularization score: 5 days, mean ± SE, control 2.93 ± 0.07
Procedure: The inhibitory effect of Compounds 1 and 3 in accordance with the present invention on the neogenesis of tumor vessels induced by the transplanted mouse tumor S180 was tested using the mouse back subcutaneous transplantation method. Specifically, 1×10^7 S180 cells were injected into a chamber formed by attaching a Millipore filter having a pore size of 0.45 μm to either side of a Millipore ring. After the injection hole was stopped up, this chamber was transplanted into an air sac formed beneath the skin of the back of a male ICR mouse (9-10 weeks old). Starting from the day of transplantation, a test compound or a solvent control comprising a 0.5% carboxymethylcellulose solution was orally administered for 5 days. After the skin was separated on the fifth day of transplantation, an O-ring of 10 mm internal diameter having the same shape as the Millipore ring was placed on the part of the skin which had been in contact with the chamber, observed under a stereoscopic microscope, and photographed.
In the photographs so taken, the degree of vascularization was rated 0, 1, 2 or 3 according to the number of 3 mm or longer tortuous blood vessels characteristic of tumoral vessels, and scored on the following basis.
0: No tumoral vessel was observed.
1: One tumoral vessel was observed.
2: Two tumoral vessels were observed.
3: Three or more tumoral vessels were observed.

For `COc1cc(O)c2c(=O)oc(C(C)C(=O)O)cc2c1` (stereo not drawn) [Compound 3, 2-(8-hydroxy-6-methoxy-1-oxo-1H-2-benzopyran-3-yl)propionic Acid], the “Sole thickness (sum of left and right, mm), after 37 days” value ([1]; 1 mg/kg/day) was 7.08 ± 0.16 mm, the “Sole thickness (sum of left and right, mm), after 37 days” value ([1]; 10 mg/kg/day) was 6.78 ± 0.98 mm and the “evidence of toxicity, 40 days” value [2] was “no animal showed evidences of toxicity”. The “mortality, 40 days” value [2] was “No animal died”, the Vascularization score ([3]; oral 0.3 mg/kg, n = 10) was 2.40 ± 0.4 and the Vascularization score ([3]; oral 1.0 mg/kg, n = 11) was 1.55 ± 0.43. For the same compound, the Vascularization score ([3]; oral 3 mg/kg, n = 14) was 0.86 ± 0.33, the Vascularization score ([3]; oral 10 mg/kg, n = 14) was 0.86 ± 0.38 and the “inhibition of vascularization induced by tumor cell S180 (in words)” value ([3]; oral, 1-10 mg/kg body weight) was “significantly inhibited vascularization”.
